Activity calls are given as the source filed them. The calls are words filed in the database; no cut-off is given here.
Assays:
[1] = Lipophilicity, log D of the compound; type: physicochemical; conditions: octanol/water
Hepatitis C virus [2] = assay: Inhibition of HCV 1b RB01 NS5B by SPA; design: species or system Hepatitis C virus subtype 1b
[3] = Bioavailability in Sprague-Dawley rat at 2 mg/kg, po and 1 mg/kg, iv; type: ADME, organism-based; conditions: in vivo
[4] = Plasma clearance in Sprague-Dawley rat at 1 mg/kg, iv; type: ADME, organism-based; design: dose 1 mg/kg, route intravenous
[5] = Cytotoxicity against Vero cells after 4 days; type: cell-based; conditions: chlorocebus sabaeus, read-out: CCID50
Hepatitis C virus [6] = assay: Antiviral activity against HCV replicon containing HCV 1b genome transfected in Huh7 cells in presence of interferon alpha 2a; type: functional, organism-based; conditions: Hepacivirus hominis; genotype 1b; Huh-7
Hepatitis C virus [7] = assay: Antiviral activity against HCV replicon containing HCV 1b genome transfected in Huh7 cells after 72 hrs by ELISA; type: functional, organism-based, Hepacivirus hominis; conditions: genotype 1b, Huh-7, 72 h
Hepatitis C virus [8] = assay: Inhibition of HCV 1b RB01 NS5B by filtermat assay; design: species or system Hepatitis C virus subtype 1b

Compound: COC[C@H]1C[C@@](CC(C)C)(C(=O)O)N(C(=O)c2ccc(C(C)(C)C)c(OC)c2)[C@H]1c1nccs1
- logD [1]: 2.2
- IC50 (Hepatitis C virus [2]): 440 nM
- bioavailability [3]: 59%
- clearance [4]: 5 mL/min/kg
- CC50 at 96 h [5]: 240000 nM
- Activity (Hepatitis C virus [6]): Active
- EC50 (Hepatitis C virus [7]): 390 nM

Compound: CCOC[C@@H]1C[C@@](CC(C)C)(C(=O)O)N(C(=O)c2ccc(C(C)(C)C)c(OC)c2)[C@H]1c1nccs1 (racemic)
- IC50 (Hepatitis C virus [2]): 3200 nM
- CC50 at 96 h [5]: 214000 nM
- EC50 (Hepatitis C virus [7]): 12800 nM

Compound: CC(C)C[C@@]1(C(=O)O)C[C@H](C(=O)O)[C@H](c2nccs2)N1C(=O)c1ccc(C(C)(C)C)cc1 (racemic)
- IC50 (Hepatitis C virus [8]): 3800 nM
- CC50 at 96 h [5]: > 500000 nM
- EC50 (Hepatitis C virus [7]): > 20000 nM

Compound: CC(C)C[C@@]1(C(=O)O)C[C@H](C(=O)O)[C@H](c2cccs2)N1C(=O)c1ccc(C(C)(C)C)cc1 (racemic)
- IC50 (Hepatitis C virus [8]): 1100 nM
- CC50 at 96 h [5]: > 500000 nM
- EC50 (Hepatitis C virus [7]): > 20000 nM

Compound: COc1cc(C(=O)N2[C@@H](c3nccs3)[C@@H](CO)C[C@@]2(CC(C)C)C(=O)O)ccc1C(C)(C)C (racemic)
- IC50 (Hepatitis C virus [2]): 730 nM
- bioavailability [3]: 12%
- clearance [4]: 36 mL/min/kg
- CC50 at 96 h [5]: 358000 nM
- EC50 (Hepatitis C virus [7]): 210 nM

Compound: CCOC[C@H]1C[C@@](CC(C)C)(C(=O)O)N(C(=O)c2ccc(C(C)(C)C)c(OC)c2)[C@H]1c1nccs1
- logD [1]: 2.7
- IC50 (Hepatitis C virus [2]): 430 nM
- bioavailability [3]: 120%
- clearance [4]: 5 mL/min/kg
- CC50 at 96 h [5]: 142000 nM
- EC50 (Hepatitis C virus [7]): 470 nM

Compound: COC[C@@H]1C[C@@](CC(C)C)(C(=O)O)N(C(=O)c2ccc(C(C)(C)C)c(OC)c2)[C@H]1c1nccs1
- IC50 (Hepatitis C virus [2]): 2300 nM
- bioavailability [3]: 44%
- clearance [4]: 12 mL/min/kg
- CC50 at 96 h [5]: 265000 nM
- EC50 (Hepatitis C virus [7]): 5700 nM

Compound: CC(C)C[C@@]1(C(=O)O)C[C@H](C(N)=O)[C@H](c2nccs2)N1C(=O)c1ccc(C(C)(C)C)cc1
- IC50 (Hepatitis C virus [8]): 970 nM
- bioavailability [3]: 2%
- clearance [4]: 21 mL/min/kg
- CC50 at 96 h [5]: 430000 nM
- EC50 (Hepatitis C virus [7]): > 20000 nM

Compound: COc1cc(C(=O)N2[C@@H](c3nccs3)[C@H](CO)C[C@@]2(CC(C)C)C(=O)O)ccc1C(C)(C)C (racemic)
- IC50 (Hepatitis C virus [2]): 1000 nM
- bioavailability [3]: 11%
- clearance [4]: 39 mL/min/kg
- CC50 at 96 h [5]: 482000 nM
- EC50 (Hepatitis C virus [7]): 1300 nM

Compound: CC(C)C[C@@]1(C(=O)O)C[C@H](C(=O)O)[C@H](c2cccs2)N1C(=O)c1ccc(C(F)(F)F)cc1 (racemic)
- IC50 (Hepatitis C virus [8]): 20000 nM
- CC50 at 96 h [5]: > 500000 nM
- EC50 (Hepatitis C virus [7]): > 20000 nM

Compound: COc1cc(C(=O)N2[C@@H](c3nccs3)[C@@H](C(N)=O)C[C@@]2(CC(C)C)C(=O)O)ccc1C(C)(C)C
- IC50 (Hepatitis C virus [8]): 5 nM
- bioavailability [3]: 0.6%
- clearance [4]: 37 mL/min/kg
- CC50 at 96 h [5]: > 500000 nM
- EC50 (Hepatitis C virus [7]): 610 nM

Compound: CC(C)C[C@@]1(C(=O)O)C[C@H](C(N)=O)[C@H](c2nccs2)N1C(=O)c1ccc(C(C)(C)C)c(Cl)c1
- IC50 (Hepatitis C virus [8]): 20 nM
- bioavailability [3]: 5%
- clearance [4]: 29 mL/min/kg
- CC50 at 96 h [5]: > 500000 nM
- EC50 (Hepatitis C virus [7]): 1200 nM

Compound: CC(C)C[C@@]1(C(=O)O)C[C@H](C(N)=O)[C@H](c2nccs2)N1C(=O)c1ccc(C(C)(C)C)c(Br)c1
- IC50 (Hepatitis C virus [8]): 14 nM
- bioavailability [3]: 2%
- clearance [4]: 24 mL/min/kg
- CC50 at 96 h [5]: > 500000 nM
- EC50 (Hepatitis C virus [7]): 570 nM

— ChEMBL document CHEMBL1142239, “Optimization of novel acyl pyrrolidine inhibitors of hepatitis C virus RNA-dependent RNA polymerase leading to a development candidate” (J Med Chem, 2007)
